Experimental data: patent publication US20250154198A1, “PEPTIDE INHIBITORS OF INTERLEUKIN-23 RECEPTOR” (Zealand Pharma A/S, priority 2021, published 2025)
*1 amine or outer side, *2 acyl side, *3 side chain or, on linkers, in order; H or OH if unused. Where a SMILES comes first, the peptide text is derived from it. Bridges are numbered along the chain shown (N, C = ends). [ ]: non-standard residue; d: D form. The star is where a group is joined. Trp(4-F) = N[C@@H](Cc1c[nH]c2cccc(F)c12)C(=O)O; 2Nal = N[C@@H](Cc1ccc2ccccc2c1)C(=O)O; AEF = NCCOc1ccc(C[C@H](N)C(=O)O)cc1; X20 = O=C(c1ccc(CCN[*:1])cc1)[*:2]; X1 = O=C(Cc1ccc(CN[*:1])cc1)[*:2]; 3Pal = N[C@@H](Cc1cccnc1)C(=O)O; X22 = NC(=O)C[C@@H](N*)c1cccnc1; αMeL = CC(C)C[C@](C)(N)C(=O)O; CH2COCH2 = O=C(C[*:1])C[*:2]; αMeV = CC(C)[C@](C)(N)C(=O)O; 3Amb = NCc1cccc(C(=O)O)c1; 4Amb = NCc1ccc(C(=O)O)cc1; Orn = NCCC[C@H](N)C(=O)O; Dab = NCC[C@H](N)C(=O)O

These molecules were tested against T1, human IL-23R (Homo sapiens, UniProt Q5VWK5) (assay: Binding assay (NanoBRET displacement of fluorophore-labelled reference compound) for estimating binding affinity to human IL-23R). Details: Table 2-10b; read-out: Ki IL-23R.
T1 construct: UniProtKB—Q5VWK5, amino acids 22-629; secretion signal of the plasmid (Promega N1371); expressed in transfected cells
T1 sequence (Q5VWK5 22-629): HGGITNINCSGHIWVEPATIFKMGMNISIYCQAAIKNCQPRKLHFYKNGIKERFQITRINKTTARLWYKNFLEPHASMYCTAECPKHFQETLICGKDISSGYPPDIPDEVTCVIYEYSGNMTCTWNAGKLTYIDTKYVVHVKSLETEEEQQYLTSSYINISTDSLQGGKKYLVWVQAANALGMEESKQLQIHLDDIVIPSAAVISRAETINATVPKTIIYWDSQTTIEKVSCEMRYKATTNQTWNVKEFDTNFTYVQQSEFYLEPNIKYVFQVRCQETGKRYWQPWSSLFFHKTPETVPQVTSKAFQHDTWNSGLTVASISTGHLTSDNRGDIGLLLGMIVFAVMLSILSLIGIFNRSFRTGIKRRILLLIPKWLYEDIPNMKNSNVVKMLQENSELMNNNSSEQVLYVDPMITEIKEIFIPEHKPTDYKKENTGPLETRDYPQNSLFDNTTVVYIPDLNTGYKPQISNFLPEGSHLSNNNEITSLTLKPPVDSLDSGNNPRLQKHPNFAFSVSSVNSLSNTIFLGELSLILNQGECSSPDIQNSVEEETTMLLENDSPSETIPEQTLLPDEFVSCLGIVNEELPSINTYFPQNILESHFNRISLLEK
Text: Binding Assay for Estimating Binding Affinity of Compounds to Human IL-23R
The compound binding affinity for IL-23R was estimated by the ability of compounds to displace a fluorophore-labelled reference compound from the human IL-23R. The assay principle relies on Bioluminescence Resonance Energy Transfer (BRET) between a fluorophore-labelled reference compound binding to the IL-23R part of a fusion protein consisting of the IL-23R fused to a Nanoluc luciferase enzyme (Nanoluc). The Nanoluc is placed in the N-terminus in close proximity to the binding domain of the ligand. Upon close proximity between the fluorophore of the fluorophore-labelled compound and the Nanoluc of the fusion protein, bioluminescence energy generated from conversion of a Nanoluc substrate, is transferred to the fluorophore resulting in an increase in BRET. In presence of an unlabelled compound, the unlabelled compound displaces the fluorophore-labelled peptide from its binding site resulting in a decrease in BRET. The concentration for which half of the fluorophore-labelled peptide is displaced by the unlabelled compound depends on the affinity of the compound for the IL-23R, and is termed the IC50 concentration. An estimated affinity (K) of the unlabelled compound for the IL-23R may be calculated using the Cheng-Prussov equation, which takes into account the concentration of the fluorophore-labelled compound used, and the affinity of the fluorophore-labelled compound for IL-23R.
The plasmid also contained a gene to confer resistance for the antibiotic hygromycin. A cell line stably expressing the Nluc-IL23R fusion protein was generated by transfection of HEK293 cells with the expression plasmid and selected with hygromycin for 3 weeks in Growth medium consisting of DMEM w/Glutamax-I containing, 10% V/V FBS, 1% V/V P/S, 1 mM Sodium Pyruvate, and 1×NEAA, and 0.3 mg/mL hygromycin. The remaining cells were propagated and considered a stable expressing Nluc-IL23R fusion protein pool clone.
Cells expressing the Nluc-IL23R fusion protein were expanded in Growth medium and membranes prepared by homogenization of a cell pellet from 18 T175 flasks (4° C. in subsequent steps). The cell pellet was lysed Tris 10 mM, 7.5, 1 mM EDTA and protease inhibitors (Complete, Roche) and homogenized using a 15 mL glass-dounce by 50 strokes. The homogenate was spun at spin @1500 rpm for 10 min, the supernatant transferred to SV-34 tubes and spun at 40000 g for 20 min at 4° C. to pellet the crude membranes. The supernatant was then removed, the pellet resuspended in 5 mL buffer containing 50 mM HEPES pH 7.4, 5 mM EGTA, and 5 mM MgCl2, and homogenized. Aliquots of the resuspended and homogenized membranes containing the Nluc-IL23R fusion protein were stored at −80° C. until use.
The plate was sealed with light impermeable plate seals, and incubated on a orbital shaker 400 rpm for 2 hours at room temperature. To determine the BRET ratio, the plate seal was removed and 25 μL of the Nanoluc substrate (Promega N1572) diluted 1:500 was added to each well and incubated for 1-2 minutes on an orbital shaker at 400 rpm. […] The BRET ratio was calculated as the fluorescence from the TAMRA/nanoluc bioluminescence. The IC50 for each compound was determined by computer-aided curve fitting using a 4-parameter logistic (4PL) non-linear model.

Q: Which Ki does the source give for `CC(C)C[C@]1(C)NC(=O)[C@H](Cc2ccc3ccccc3c2)NC(=O)[C@H](Cc2ccc(OCCN)cc2)NC(=O)[C@@H]2CSCC(=O)CSC[C@H](NC(=O)[C@H](CO)NC(=O)c3ccc(cc3)CCNC(=O)CC[C@@H](C(=O)N[C@@H](CCCNC(=N)N)C(N)=O)NC1=O)C(=O)N[C@@H](Cc1c[nH]c3ccccc13)C(=O)N[C@@H](CCC(N)=O)C(=O)N2` [Compound 50, [4-(2-Aminoethyl)benzoyl](1c)*SC(2a)WQC(2a)[Y(2-aminoethoxy)][2-Nal][2-Me-Leu]E(1c)R-[NH2]] ([X20]SCWQC[AEF][2Nal][αMeL]ER-NH2; linker 3-6 via CH2COCH2; lactam N-10) here?
A: The Ki was 5.09 nM.

Q: How did the Ki turn out when `CC(C)C[C@]1(C)NC(=O)[C@H](Cc2ccc3ccccc3c2)NC(=O)[C@H](Cc2ccc(OCCN)cc2)NC(=O)[C@@H]2CSCC(=O)CSC[C@H](NC(=O)[C@H](CO)NC(=O)c3ccc(cc3)CNC(=O)CC[C@@H](C(=O)N[C@@H](CCCNC(=N)N)C(N)=O)NC1=O)C(=O)N[C@@H](Cc1c[nH]c3ccccc13)C(=O)N[C@@H](CCC(N)=O)C(=O)N2` [Compound 49, [(4-Aminomethyl)benzoyl](1c)*SC(2a)WQC(2a)[Y(2-aminoethoxy)][2-Nal][2-Me-Leu]E(1c)R-[NH2]] ([4Amb]SCWQC[AEF][2Nal][αMeL]ER-NH2; linker 3-6 via CH2COCH2; lactam N-10) was run?
A: Its Ki is 1.16 nM.

Same assay, conditions: Table 3-1; read-out: Ki hIL-23R

Q: How did the Ki turn out when `CC(C)C[C@]1(C)NC(=O)[C@H](Cc2ccc3ccccc3c2)NC(=O)[C@H](Cc2ccc(OCCN)cc2)NC(=O)[C@@H]2CCNC(=O)CC[C@H](NC(=O)[C@H](CO)NC(=O)Cc3ccc(cc3)CNC(=O)CC[C@@H](C(=O)N[C@@H](CCN)C(N)=O)NC1=O)C(=O)N[C@@H](Cc1c[nH]c3cccc(F)c13)C(=O)N[C@@H](CCC(N)=O)C(=O)N2` [Compound 138, [4-Aminomethyl-phenylacetyl](1c)*SE(2c)[4-F-Trp]Q[Dab](2c)[Y(2-aminoethoxy)][2-Nal][2-Me-Leu]E(1c)[Dab]-[NH2]] ([X1]SE[Trp(4-F)]Q[Dab][AEF][2Nal][αMeL]E[Dab]-NH2; lactam 3-6, N-10) was run?
A: The Ki was 0.723 nM.

Q: How did the Ki turn out when `CC(C)C[C@]1(C)NC(=O)[C@H](Cc2ccc3ccccc3c2)NC(=O)[C@H](Cc2ccc(OCCN)cc2)NC(=O)[C@@H]2CSCC(=O)CSC[C@H](NC(=O)[C@H](CO)NC(=O)Cc3ccc(cc3)CNC(=O)CC[C@@H](C(=O)N[C@H](CCC(N)=O)C(N)=O)NC1=O)C(=O)N[C@@H](Cc1c[nH]c3ccccc13)C(=O)N[C@@H](CCC(N)=O)C(=O)N2` [Compound 115, [4-Aminomethyl-phenylacetyl](1c)*SC(2a)WQC(2a)[Y(2-aminoethoxy)][2-Nal][2-Me-Leu]E(1c)[{d}Q]-[NH2]] ([X1]SCWQC[AEF][2Nal][αMeL]E[dQ]-NH2; linker 3-6 via CH2COCH2; lactam N-10) was run?
A: Its Ki is 0.182 nM.

Q: With `CC(C)C[C@]1(C)NC(=O)[C@H](Cc2ccc3ccccc3c2)NC(=O)[C@H](Cc2ccc(OCCN)cc2)NC(=O)[C@@H]2CSCC(=O)CSC[C@H](NC(=O)[C@H](CO)NC(=O)c3cccc(c3)CNC(=O)CC[C@@H](C(=O)N[C@@H](CCCNC(=N)N)C(=O)N[C@H](CC(N)=O)c3cccnc3)NC1=O)C(=O)N[C@@H](Cc1c[nH]c3ccccc13)C(=O)N[C@@H](CCC(N)=O)C(=O)N2` [Compound 151, [(3-Aminomethyl)benzoyl](1c)*SC(2a)WQC(2a)][Y(2-aminoethoxy)][2-Nal][2-Me-Leu]E(1c)R[3-Amino-3-(3′-pyridyl)propionyl]-[NH2]] ([3Amb]SCWQC[AEF][2Nal][αMeL]ER-X22; linker 3-6 via CH2COCH2; lactam N-10) as the molecule, how does the Ki read?
A: Its Ki is 0.672 nM.

Q: `CC[C@H](C)[C@@H]1NC(=O)c2cccc(c2)CNC(=O)CC[C@@H](C(=O)N[C@@H](CCN)C(=O)N[C@@H](Cc2cccnc2)C(N)=O)NC(=O)[C@](C)(C(C)C)NC(=O)[C@H](Cc2ccc3ccccc3c2)NC(=O)[C@H](Cc2ccc(OCCN)cc2)NC(=O)[C@@H]2CCNC(=O)CC[C@H](NC1=O)C(=O)N[C@@H](Cc1c[nH]c3ccccc13)C(=O)N[C@@H](CCC(N)=O)C(=O)N2` [Compound 156, [(3-Aminomethyl)benzoyl](1c)*IE(2c)WQ[Dab](2c)[Y(2-aminoethoxy)][2-Nal][2-Me-Val]E(1c)[Dab][3-(3-Pyridyl)-Ala]-[NH2]] ([3Amb]IEWQ[Dab][AEF][2Nal][αMeV]E[Dab][3Pal]-NH2; lactam 3-6, N-10) was tested. Which Ki did it give?
A: The Ki was 0.0157 nM.

Q: `CC(C)C[C@]1(C)NC(=O)[C@H](Cc2ccc3ccccc3c2)NC(=O)[C@H](Cc2ccc(OCCN)cc2)NC(=O)[C@@H]2CCC(=O)NCCC[C@H](NC(=O)[C@H](CO)NC(=O)c3cccc(c3)CNC(=O)CC[C@@H](C(=O)N[C@@H](CCCNC(=N)N)C(N)=O)NC1=O)C(=O)N[C@@H](Cc1c[nH]c3ccccc13)C(=O)N[C@@H](CCC(N)=O)C(=O)N2` (relative stereo) [Compound 68, [(3-Aminomethyl)benzoyl](1c)*S[Orn](2c)WQE(2c)[Y(2-aminoethoxy)][2-Nal][2-Me-Leu]E(1c)R-[NH2]] was tested. Which Ki did it give?
A: Its Ki is 3.32 nM.

Q: With `CC(C)C[C@]1(C)NC(=O)[C@H](Cc2ccc3ccccc3c2)NC(=O)[C@H](Cc2ccc(OCCN)cc2)NC(=O)[C@@H]2CSCC(=O)CSC[C@H](NC(=O)[C@H](CO)NC(=O)c3ccc(cc3)CCNC(=O)CC[C@@H](C(=O)N[C@@H](CCCNC(=N)N)C(N)=O)NC1=O)C(=O)N[C@@H](Cc1c[nH]c3ccccc13)C(=O)N[C@@H](CCC(N)=O)C(=O)N2` [Compound 50, [4-(2-Aminoethyl)benzoyl](1c)*SC(2a)WQC(2a)[Y(2-aminoethoxy)][2-Nal][2-Me-Leu]E(1c)R-[NH2]] ([X20]SCWQC[AEF][2Nal][αMeL]ER-NH2; linker 3-6 via CH2COCH2; lactam N-10) as the molecule, how does the Ki read?
A: Its Ki is 5.1 nM.

Q: With `CC(C)C[C@]1(C)NC(=O)[C@H](Cc2ccc3ccccc3c2)NC(=O)[C@H](Cc2ccc(OCCN)cc2)NC(=O)[C@@H]2CCCNC(=O)CC[C@H](NC(=O)[C@H](CO)NC(=O)c3cccc(c3)CNC(=O)CC[C@@H](C(=O)N[C@@H](CCCNC(=N)N)C(N)=O)NC1=O)C(=O)N[C@@H](Cc1c[nH]c3ccccc13)C(=O)N[C@@H](CCC(N)=O)C(=O)N2` [Compound 69, [(3-Aminomethyl)benzoyl](1c)*SE(2c)WQ[Orn](2c)[Y(2-aminoethoxy)][2-Nal][2-Me-Leu]E(1c)R-[NH2]] ([3Amb]SEWQ[Orn][AEF][2Nal][αMeL]ER-NH2; lactam 3-6, N-10) as the molecule, how does the Ki read?
A: The Ki was 2.76 nM.

Q: `CC(C)C[C@]1(C)NC(=O)[C@H](Cc2ccc3ccccc3c2)NC(=O)[C@H](Cc2ccc(OCCN)cc2)NC(=O)[C@@H]2CSCC(=O)CSC[C@H](NC(=O)[C@H](CO)NC(=O)Cc3ccc(cc3)CNC(=O)CC[C@@H](C(=O)N[C@@H](CCCNC(=N)N)C(=O)N[C@@H](Cc3cccnc3)C(N)=O)NC1=O)C(=O)N[C@@H](Cc1c[nH]c3ccccc13)C(=O)N[C@@H](CCC(N)=O)C(=O)N2` [Compound 147, [4-Aminomethyl-phenylacetyl](1c)*SC(2a)WQC(2a)[Y(2-aminoethoxy)][2-Nal][2-Me-Leu]E(1c)R[3-(3-Pyridyl)-Ala]-[NH2]] ([X1]SCWQC[AEF][2Nal][αMeL]ER[3Pal]-NH2; linker 3-6 via CH2COCH2; lactam N-10) was tested. Which Ki did it give?
A: Its Ki is 0.0119 nM.

Q: How did the Ki turn out when `CC(C)[C@]1(C)NC(=O)[C@H](Cc2ccc3ccccc3c2)NC(=O)[C@H](Cc2ccc(OCCN)cc2)NC(=O)[C@@H]2CCNC(=O)CC[C@H](NC(=O)[C@H](CO)NC(=O)Cc3ccc(cc3)CNC(=O)CC[C@@H](C(=O)N[C@@H](CCN)C(N)=O)NC1=O)C(=O)N[C@@H](Cc1c[nH]c3ccccc13)C(=O)N[C@@H](CCC(N)=O)C(=O)N2` [Compound 136, [4-Aminomethyl-phenylacetyl](1c)*SE(2c)WQ[Dab](2c)[Y(2-aminoethoxy)][2-Nal][2-Me-Val]E(1c)[Dab]-[NH2]] was run?
A: Its Ki is 0.17 nM.
